In US10738067B2, “Inhibitors of cyclin-dependent kinase 7 (CDK7)” (Syros Pharmaceuticals, Inc., priority 2018, dated 2020):

Key:
HCC70 cells = assay: HCC70 cell proliferation assay (CyQUANT Direct, 72 hours); assay type: cell-based; settings: Homo sapiens, inhibition of proliferation
Description: The HCC70 cell line was derived from human TNBC, and we tested representative compounds of the invention, at different concentrations (from 4 μM to 126.4 pM; 0.5 log serial dilutions), for their ability to inhibit the proliferation of those cells. More specifically, we tested the same compounds tested above for CDK7 selectivity (the structures of which are shown in FIG. 1), and we used the known CDK inhibitors dinaciclib (or […]) and triptolide as positive controls. The cells were grown in ATCC-formulated RPMI-1640 medium (ATCC 30-2001) supplemented with 10% fetal bovine serum (FBS), at 37° C. in a humidified chamber in the presence of 5% CO2. We conducted proliferation assays over a 72-hour time period using a CyQUANT® Direct Cell Proliferation Assay (Life Technologies, Chicago, Ill. USA) according to the manufacturer's directions and utilizing the reagents supplied with the kit.

[1] = tested on: palbociclib-resistant ER+BC PDX (ST1799); assay: Tumor growth inhibition in palbociclib-resistant ER+BC PDX model ST1799; assay type: in vivo, Mice; settings: last day of 28 days dosing, Compound 101 6 mg/kg QD PO, fulvestrant 2.5 mg/kg once weekly SC, palbociclib 50 mpk QD PO
Description: (§1) Tumor growth inhibition was evaluated in estrogen receptor-positive breast cancer (ER+BC) PDX models selected in vivo for resistance to the CDK4/6 inhibitor palbociclib (ST1799, n=1) or resistance to both palbociclib and fulvestrant (ST941, n=1). Dosing was initiated when tumors were 100-200 mm^3.

[2] = tested on: ST390 (modeling pancreatic ductal adenocarcinoma (PDAC)); assay: Tumor growth inhibition in PDAC PDX model ST390; assay type: in vivo, NOD/SCID mice
Description: (§2) In the TNBC model, Compound 101 was orally administered to tumor-bearing NOD/SCID mice at 10 mg/kg QD or 5 mg/kg BID for 21 days. In the SCLC and HGSOC models, Compound 101 was orally administered to tumor-bearing NOD/SCID mice at 3 mg/kg BID for 21 days. In the PDAC model, Compound 101 was orally administered to tumor-bearing NOD/SCID mice at 6 mg/kg QD. In the TNBC, SCLC, and HGSOC models, tumor volume was measured during the treatment period and for an additional 21 days after treatment ceased. […] The % regression was calculated as: (Mean TV Compound 101 @ EOT)/(Mean TV Compound 101 @Day 0)×100. The same calculations were used for end of study (day 42).

[3] = tested on: palbociclib and fulvestrant double-resistant ER+BC PDX model (ST941); assay: Tumor growth inhibition in palbociclib and fulvestrant double-resistant ER+BC PDX model ST941; assay type: in vivo, Mice; settings: fulvestrant 2.5 mg/kg once weekly SC; for anti-tumor activity (in words): palbociclib 50 mpk QD PO
Description: as §1

[4] = tested on: PDX models BR5010 (TNBC), LU5178 (SCLC), OV15398 (HGSOC); assay: Tumor growth inhibition in TNBC, SCLC and HGSOC PDX models; assay type: in vivo, NOD/SCID mice
[5] = Tolerability in tumor-bearing mice (PDX studies); settings: all once-daily doses tested
Description: as §2
(§3) Dosing was initiated when tumors were 150-300 mm^3. Mice were treated with either Compound 101, QD (6 or 10 mg/kg once daily, by mouth) or BID (3 or 5 mg/kg twice daily, by mouth) over the course of 21 days, followed by 21 days of observation. TGI was calculated on the last day of dosing using the formula: TGI=(Vc1−Vt1)/(Vc0−Vt0), where Vc1 and Vt1 are the mean volumes of control and treated groups at the time of tumor extraction, while Vc0 and Vt0 are the same groups at the start of dosing.

in vivo = settings: NOD/SCID, mouse, oral
Description: as §2, §3

[6] = tested on: 12 PDX models representing SCLC, TNBC and HGSOC; assay: Tumor growth inhibition in 12 PDX models (SCLC, TNBC, HGSOC); assay type: in vivo, Mice
Description: We evaluated TGI in 12 different PDX models (Crown Biosciences) in various tumor indications with PDXs representing SCLC (n=5; LU5180, LU5178, LU5192, LU5173, LU5210), TNBC (n=4; BR5010, BR1458, BR5399, BR10014) and HGSOC (n=3; OV15398, OV5392, OV15631). Dosing was initiated when tumors were 150-300 mm^3. […] TGI was calculated on the last day of dosing using the formula: TGI=(Vc1−Vt1)/(Vc0−Vt0), where Vc1 and Vt1 are the mean volumes of control and treated groups at the time of tumor extraction, while Vc0 and Vt0 are the same groups at the start of dosing.

## C[C@H]1CC[C@H](Nc2ncc(C(F)(F)F)c(-c3c[nH]c4c(P(C)(C)=O)c(C#N)ccc34)n2)CN1 [Compound 100, 7-dimethylphosphoryl-3-[2-[[(3S, 6S)-6-methyl-3-piper-idyl]amino]-5-(trifluoromethyl)pyrimidin-4-yl]-1H-indole-6-carbonitrile]
HCC70 cells
  EC50: 0.98 nM

## CC1(C)CC[C@H](Nc2ncc(C(F)(F)F)c(-c3c[nH]c4c(P(C)(C)=O)c(C#N)ccc34)n2)CN1 [Compound 101, (S)-7-(dimethylphosphoryl)-3-(2-((6,6-dimethylpiperidin-3-yl)amino)-5-(trifluoromethyl)pyrimidin-4-yl)-1H-indole-6-carbonitrile]
[1]
  Tumor growth inhibition (TGI): 83%
[2]; 6 mg/kg QD PO, over ~28 days, sub-MTD dose
  Tumor growth inhibition (TGI): 100%
[2]; day 21, 6 mg/kg QD, PO
  tumor volume: about 250 mm^3
[3]; last day of 28 days dosing, Compound 101 6 mg/kg QD PO
  Tumor growth inhibition (TGI): 33%
[4]; TNBC 10 mg/kg QD or 5 mg/kg BID, SCLC and HGSOC 3 mg/kg BID, oral, 21 days, plus 21 days observation
  TGI (in words): deep and sustained TGI, including regressions
[4]; observed within 4 hours of dosing, sustained for 24 hours
  transcriptional responses in xenograft tissue: Dose-dependent transcriptional responses
[5]
  body weight loss (tolerability): no evident body weight loss
In vivo
  MTD at 21 days: > 10 mg/kg
HCC70 cells
  EC50: 5.6 nM
[6]; all 12 PDX models, 6 or 10 mg/kg QD or 3 or 5 mg/kg BID, by mouth
  TGI at the end of the 21-day dosing period: at least 50%
[6]; subset of models (7/12), 21 days after treatment discontinuation
  tumor regrowth after treatment discontinuation: no evidence of tumor regrowth
[6]; subset of models (58%, 7/12)
  TGI of deep responses (TGI or regression): > 95%

## CC1(C)CNC[C@@H](Nc2ncc(C(F)(F)F)c(-c3c[nH]c4c(P(C)(C)=O)c(C#N)ccc34)n2)C1 [Compound 102, (S)-7-(dimethylphosphoryl)-3-(2-((5,5-dimethylpiperidin-3-yl)amino)-5-(trifluoromethyl)pyrimidin-4-yl)-1H-indole-6-carbonitrile]
HCC70 cells
  EC50: 2.1 nM

## C[C@]12CC[C@@H]3c4ccc(O)cc4C[C@@H](CCCCCCCCC[S+]([O-])CCCC(F)(F)C(F)(F)F)[C@H]3[C@@H]1CC[C@@H]2O (stereo partly drawn) [fulvestrant]
[1]
  Tumor growth inhibition (TGI): 60%
[3]
  anti-tumor activity (in words): no activity

## CC(=O)c1c(C)c2cnc(Nc3ccc(N4CCNCC4)cn3)nc2n(C2CCCC2)c1=O [palbociclib]
[1]
  Tumor growth inhibition (TGI): 21%
[3]
  anti-tumor activity (in words): no activity
